# Results: patent US20090081143A1, “Extracts From Black Yeast For Whitening Skin” (priority 2007, published 2009)
# Tested on: UV-B induced tan
# Experiment: Whitening action: fading of UV-B induced tan on the backs of volunteers (Minolta Chromameter reflectance)
# Assay type: in vivo, human
# Conditions: FIG. 5; 1% extract or 2% kojic acid in Example 4 cream; 2 mg/cm^2 once a day; nine volunteers
# Experimental: A comparative study is done to determine the whitening efficacy of an Exophiala mansonii-derived enzyme extract in comparison to the efficacy of a known tyrosinase inhibitor, kojic acid. More specifically, the study was designed to study the lightening effect of these materials (reduction in tanning) using the fading of UV-B induced tan as a marker. Two samples are prepared. The first sample contains the composition described in Example 4. The second sample has the same composition as that described in Example 4 except that 2% kojic acid is substituted for the 1% Exophiala mansonii enzyme extract. Nine volunteers participate in the study. The volunteer panelists are in normal health with no evidence of acute or chronic disease including dermatological problems. […] Tanning is observed for six days after irradiation at which point color measurements are made using a Minolta Chromameter which measures the difference in reflectance of the skin, L. The change in the value of the difference in reflectance, ΔL*, is measured against a baseline skin color value of untreated irradiated skin measured on day 6. […] The observed reflectance values for all the time points are recorded, and the area under the curve for each test site was calculated. The Whitening Factor is calculated as the area under the curve of the treated site subtracted from the untreated site, and is shown in FIG. 5.
smiles,measurement,value
O=c1cc(CO)occ1O [kojic acid],Whitening Factor (area under the curve of the treated site subtracted from the untreated site),1.8
